{"source": "patent US6214841A", "about": "“Antithrombotic compound” (Eli Lilly and Company, priority 1999, dated 2001)", "key": {"factor Xa": {"biological_target": "factor Xa", "experiment": "Inhibition of factor Xa amidase activity, chromogenic substrate (Kass)", "format": "biochemical, human", "conditions": "average of 3 assays; read-out: Kass, inhibitor of factor Xa (converted)"}, "human thrombin": {"biological_target": "human thrombin", "experiment": "Inhibition of thrombin amidase activity, chromogenic substrate (Kass)", "format": "biochemical", "conditions": "average of 3 assays; read-out: Kass, inhibitor of thrombin (converted)", "method": "For example, thrombin hydrolyzes N-benzoyl-L-phenylalanyl-L-valyl-L-arginyl-p-nitroanilide, N-benzoyl-L-Phe-L-Val-L-Arg-p-nitroanilide.\nThe assay is carried out by mixing 50 μL buffer (0.03M Tris, 0.15M NaCl, pH 7.4) with 25 μL of human thrombin solution (purified human thrombin, Enzyme Research Laboratories, South Bend, Indiana, at 8 NIH units/mL) and 25 μL of test compound in a solvent (50% aqueous methanol (v:v)). Then 150 μL of an aqueous solution of the chromogenic substate (at 0.25 mg/mL) are added and the rates of hydrolysis of the substrate are measured by monitoring the reactions at 405 nm for the release of p-nitroaniline. Standard curves are constructed by plotting free thrombin concentration against hydrolysis rate. The hydrolysis rates observed with test compounds are then converted to \"free thrombin\" values in the respective assays by use of the standard curves. The bound thrombin (bound to test compound) is calculated by subtracting the amount of free thrombin observed in each assay from the known initial amount of thrombin used in the assay. The amount of free inhibitor in each assay is calculated by subtracting the number of moles of bound thrombin from the number of moles of added inhibitor (test compound). […]\nKass is calculated for a range of concentrations of test compounds and the mean value reported in units of liter per mole."}, "rabbit AV shunt model": {"test_system": "rabbit AV shunt model", "experiment": "Arterio-venous (AV) shunt model in the rabbit", "format": "in vivo", "conditions": "i.v. infusion", "from_the_text": "Arterio-Venous (AV) Shunt Model in the Rabbit\nEfficacy and potency of a compound are studied in a model of thrombosis in the anesthetized rabbit in which blood is shunted from the carotid artery through tubing to the left jugular vein. The shunt houses a thread upon which thrombotic material is deposited and is quantified in the presence and absence of a test compound. Specifically, the left jugular vein and right carotid artery are cannulated (PE 200 tubing, 22 cm). The tip of the arterial tubing is advanced approximately 1 cm and the tip of the venous tubing is advanced approximately 1 cm. The arterial and venous shunt segments are friction fitted into a center section of larger tubing (PE 260, 6 cm) with 4 strands of cotton thread (5.5 cm each), knotted together with a single knot at the end, in the lumen. Blood is circulated through the shunt for 15 min. The arterial and venous segments are clamped, the center section is detached, held vertically and the thread is carefully removed and weighed. The weight of a wet thread (38 mg, average of 10-4-stranded identical lengths) is subtracted from the total weight of the thread and thrombus. A drug is infused through a second catheter in the right jugular vein (2 cm inside vessel) starting 15 min before and throughout the 15 min period of blood circulation through the shunt. […]"}}}
{"smiles": "N=C(N)NCCCC(NC(=O)[C@@H]1CCCN1C(=O)[C@@H]1NCC[C@H]2CCCC[C@H]21)C(=O)c1nc2ccccc2s1", "note": "(mixture of isomers) [DL-Arg-Ia, (1R,4aR,8aR)-Perhydroisoquinolin-1-ylcarbonyl-N-[(1RS)-4-[(aminoiminomethyl)amino]-1-(benzothiazol-2-ylcarbonyl)-butyl]-L-prolinamide. 1.5 H2 SO4]", "values": [{"measurement": "Kd", "setting": "factor Xa", "result": 3.32, "unit": "nM"}, {"measurement": "Kd", "setting": "human thrombin", "result": 2.84, "unit": "nM"}, {"measurement": "ED50% (infusion dose to reduce thrombus weight by 50%)", "setting": "rabbit AV shunt model", "result": 0.008, "unit": "mg/kg/h"}]}
